# Test results reported in PubChem BioAssay AID2019 (NMMLSC, 2009).
# Target: Cell division control protein 42 homolog (Homo sapiens) (UniProt P60953)
# Test: inhibition of fluorescent GTP binding to wildtype Cdc42 – biochemical, pyrazoline analogs, multiplex bead flow cytometry, Ki, SAR follow-up (AID 2019)
# Conditions: bead-based flow cytometry, Bodipy-FL-GTP binding; Ki calculated from EC50
# Cell division control protein 42 homolog (Homo sapiens), sequence (P60953 whole entry, looked up): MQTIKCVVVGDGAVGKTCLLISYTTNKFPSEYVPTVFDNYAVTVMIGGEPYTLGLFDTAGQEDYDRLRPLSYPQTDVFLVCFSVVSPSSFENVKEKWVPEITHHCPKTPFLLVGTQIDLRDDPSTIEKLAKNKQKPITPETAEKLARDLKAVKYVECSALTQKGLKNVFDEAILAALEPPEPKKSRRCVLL
row,SMILES,Ki
1,COc1ccc(C2=NN(c3ccccc3)C(c3ccccc3C(F)(F)F)C2)cc1 (stereo unspecified),7280 nM
2,COc1ccc(C2CC(c3ccc(N(C)C)cc3)=NN2c2ccc(S(N)(=O)=O)cc2)cc1 (stereo unspecified),710 nM
3,COc1ccc(C2CC(c3cccc(F)c3)=NN2c2ccc(S(N)(=O)=O)cc2)cc1 (stereo unspecified),610 nM
4,COc1ccc(C2CC(c3ccc(Br)cc3)=NN2c2ccc(S(N)(=O)=O)cc2)cc1 (stereo unspecified),630 nM
5,COc1ccc(C2=NN(c3ccc(S(N)(=O)=O)cc3)C(c3ccc(OC)cc3)C2)cc1 (stereo unspecified),540 nM
6,COc1ccc(C2CC(c3ccccc3F)=NN2c2ccc(S(N)(=O)=O)cc2)cc1 (stereo unspecified),590 nM
7,COc1ccc(C2CC(c3ccc(F)cc3)=NN2c2cccc(F)c2)cc1OC (stereo unspecified),4450 nM
8,COc1ccc(C2CC(c3ccccc3OC)=NN2c2ccc(S(N)(=O)=O)cc2)cc1 (stereo unspecified),1270 nM
9,O=S(=O)(c1ccc(N2N=C(c3ccccc3)CC2c2ccccc2)cc1)C(F)F (stereo unspecified),50 nM
10,COc1ccc(C2CC(c3ccc(Cl)cc3)=NN2c2ccc(S(N)(=O)=O)cc2)cc1 (stereo unspecified),490 nM
11,COc1ccc(C2CC(c3cccc(Cl)c3)=NN2c2ccc(S(N)(=O)=O)cc2)cc1 (stereo unspecified),270 nM
12,COc1ccc(C2CC(c3ccc(F)cc3)=NN2c2ccc(S(N)(=O)=O)cc2)cc1 (stereo unspecified),900 nM
13,COc1ccc(C2CC(c3cccs3)=NN2c2ccc(S(N)(=O)=O)cc2)cc1 (stereo unspecified),620 nM
14,COc1ccc(-c2cc(-c3ccccc3)nn2-c2ccc(S(N)(=O)=O)cc2)cc1,1070 nM
15,COc1ccc(C2CC(c3cccc(OC)c3)=NN2c2ccc(S(N)(=O)=O)cc2)cc1 (stereo unspecified),310 nM
16,COc1ccc(C2CC(c3cccc(C(F)(F)F)c3)=NN2c2ccc(S(N)(=O)=O)cc2)cc1 (stereo unspecified),660 nM
17,COc1ccc(C2CC(c3cccnc3)=NN2c2ccc(S(N)(=O)=O)cc2)cc1 (stereo unspecified),2010 nM
18,COc1ccc(C2CC(c3ccsc3)=NN2c2ccc(S(N)(=O)=O)cc2)cc1 (stereo unspecified),1540 nM

# The next lines start with the values.
row,Ki,SMILES
1,700 nM,NS(=O)(=O)c1ccc(N2N=C(c3ccccc3)CC2c2cccc(Cl)c2)cc1 (stereo unspecified)
2,1530 nM,NS(=O)(=O)c1ccc(N2N=C(c3ccccc3)CC2c2ccccc2Cl)cc1 (stereo unspecified)
3,1060 nM,Cc1cccc(C2CC(c3ccccc3)=NN2c2ccc(S(N)(=O)=O)cc2)c1 (stereo unspecified)
4,700 nM,NS(=O)(=O)c1ccc(N2N=C(c3ccccc3)CC2c2cccc(Br)c2)cc1 (stereo unspecified)
5,230 nM,NS(=O)(=O)c1ccc(N2N=C(c3ccccc3)CC2c2ccc(Br)cc2)cc1 (stereo unspecified)
6,870 nM,COc1ccc(C2CC(c3ccccc3C)=NN2c2ccc(S(N)(=O)=O)cc2)cc1 (stereo unspecified)
7,1010 nM,COc1cccc(C2CC(c3ccccc3)=NN2c2ccc(S(N)(=O)=O)cc2)c1 (stereo unspecified)
8,800 nM,COc1ccc(C2CC(c3cccc(C)c3)=NN2c2ccc(S(N)(=O)=O)cc2)cc1 (stereo unspecified)
9,580 nM,NS(=O)(=O)c1ccc(N2N=C(c3ccccc3)CC2c2ccc(Cl)cc2)cc1 (stereo unspecified)
10,4750 nM,COc1ccccc1C1CC(c2ccccc2)=NN1c1ccc(S(N)(=O)=O)cc1 (stereo unspecified)
11,440 nM,COc1ccc(C2CC(c3cccc(Br)c3)=NN2c2ccc(S(N)(=O)=O)cc2)cc1 (stereo unspecified)
12,1050 nM,Cc1ccc(C2CC(c3ccccc3)=NN2c2ccc(S(N)(=O)=O)cc2)cc1 (stereo unspecified)
13,550 nM,COc1ccc(C2CC(c3ccccc3Cl)=NN2c2ccc(S(N)(=O)=O)cc2)cc1 (stereo unspecified)
14,3510 nM,Cc1ccccc1C1CC(c2ccccc2)=NN1c1ccc(S(N)(=O)=O)cc1 (stereo unspecified)
15,1210 nM,COc1ccc(C2CC(c3ccccc3)=NN2c2ccc(S(N)(=O)=O)cc2)cc1OC (stereo unspecified)
16,700 nM,NS(=O)(=O)c1ccc(N2N=C(c3ccc(Cl)cc3)CC2c2ccccc2)cc1 (stereo unspecified)
17,710 nM,COc1ccc(C2CC(c3ccccc3Br)=NN2c2ccc(S(N)(=O)=O)cc2)cc1 (stereo unspecified)
18,470 nM,COc1ccc(C2CC(c3ccc(C)cc3)=NN2c2ccc(S(N)(=O)=O)cc2)cc1 (stereo unspecified)
